Results taken from patent publication US20070142433A1, “Angiogenesis-affecting compounds and methods of use thereof” (priority 2004, published 2007).
Where a name gives a salt, the structure may show the parent alone.

Key:
HUVEC [1] = test: Cell proliferation assay (crystal violet), HUVEC; type: cell-based; details: Homo sapiens, 72 hours, OD 595 nm
Experimental: In order to further confirm the surprising results described above, the compounds were tested in a cell proliferation assay. Crystal violet was used to measure cell proliferation; this basic dye stains cell nuclei and provides a sensitive, rapid evaluation. Light absorption of unstained or destained cell layers is negligible, making it possible to perform cell number measurements in wells.
Six cell types (HUVEC, HDMEC, SMC, Fibroblast, A375 and RENCA) were plated and treated with the compounds in a log2 titration for 72 hours. The optimal cell number for each cell type was determined and optical density (OD) was measured at 595 nm. Each data point was measured in quadruplicate. The assay was stopped after 72 hours and subsequently analyzed.
The OD-value of the plated cells before addition of the compounds was subtracted from all OD-values obtained after treatment. The percentage in relation to control proliferation was then calculated. Negative values therefore represent a count of fewer cells than were plated. The IC50 is given below in Table 1. Results are shown as a percentage in relation to the control proliferation. The IC50 were calculated using GraphPad Prism software (GraphPad Software, Inc.). Perhexiline results are depicted graphically in FIGS. 4A-4C and Erythromycin results in FIGS. 5A-5C. […]

[2] = tested on: NHDF (human dermal fibroblasts) scattering; test: NHDF spheroid evaluation (fibroblast scattering); type: cell-based
Experimental: Where the test compound was classified as an inhibitor or stimulator, a second screening process was performed. In the second screen, the test substance was thawed and 5 mM of the substance was diluted to a 10 fold concentrated working solution (100 μM) in endothelial cell basal medium. No supplements were used in the basal medium.
Instead of HUVEC, spheroids were prepared by pipetting 400 human dermal fibroblasts (NHDF) into each well of nonadhesive 96-well plates. Prior to use the NHDF were cultured according to the supplier's instructions (PromoCell, Heidelberg, Germany). The cells were allowed to aggregate overnight into spheroids (Korff and Augustin: J Cell Biol 143: 1341-52, 1998). After aggregation, 48 NHDF spheroids were harvested. Each of the harvested spheroids was seeded in 900 μl of methocel-collagen solution and pipetted into an individual well of a 24-well plate to allow collagen gel polymerization.
(§1) Thirty (30) minutes after seeding, the test substance was added. The working dilution (10 fold concentration) was utilized, 100 μl was pipetted on top of the polymerized collagen gel in each well. The plates were then incubated at 37° C. for 24 hours. At the end of the incubation period the plates were fixed by adding 1 ml paraformaldehyde (10%) to each well.
The NHDF spheroids were microscopically assayed for fibroblast scattering intensity. […] For exemplary results, see FIG. 1.

HDMEC = test: Cell proliferation assay (crystal violet), HDMEC; type: cell-based; details: 72 hours, OD 595 nm
Experimental: In order to further confirm the surprising results described above, the compounds were tested in a cell proliferation assay. Crystal violet was used to measure cell proliferation; this basic dye stains cell nuclei and provides a sensitive, rapid evaluation. Light absorption of unstained or destained cell layers is negligible, making it possible to perform cell number measurements in wells. Six cell types (HUVEC, HDMEC, SMC, Fibroblast, A375 and RENCA) were plated and treated with the compounds in a log2 titration for 72 hours. The optimal cell number for each cell type was determined and optical density (OD) was measured at 595 nm. Each data point was measured in quadruplicate. The assay was stopped after 72 hours and subsequently analyzed. The OD-value of the plated cells before addition of the compounds was subtracted from all OD-values obtained after treatment. The percentage in relation to control proliferation was then calculated. Negative values therefore represent a count of fewer cells than were plated. The IC50 is given below in Table 1. Results are shown as a percentage in relation to the control proliferation. The IC50 were calculated using GraphPad Prism software (GraphPad Software, Inc.). Perhexiline results are depicted graphically in FIGS. 4A-4C and Erythromycin results in FIGS. 5A-5C.

Fibroblast = test: Cytoviability assay (resazurin), Fibroblast; type: cell-based; details: 24 hours after treatment, read-out: IC50 cell viability Fibroblast
Experimental: (§2) A cell viability assay based on cellular reduction of resazurin to the fluorescent product resorufin was performed. Viable cells can metabolize and reduce the dye, whereas dead cells rapidly lose the capacity to do so, making the increase in fluorescence directly proportional to the number of viable cells. The tested compounds were added in a log2 titration and viable cells were analyzed 24 hours after treatment. The fluorescence was determined at an excitation wavelength of 560 nm and an emission wavelength of 590 nm. The percentage of viable cells in relation to the untreated control proliferation was calculated. […] Perhexiline results are depicted graphically in FIGS. 6A-6C and Erythromycin results in FIGS. 7A-7C.

HUVEC sprouting = test: Primary angiogenesis screen, HUVEC spheroid evaluation (EC sprouting); type: cell-based, human; details: HUVEC spheroids in collagen gel, VEGF-supplemented, 24 hours
Experimental: A test substance was selected for evaluation in angiogenesis screens. The test substance was synthesized or obtained as appropriate and stored at −20° C. in DMSO. Prior to use, the test substance was thawed and 5 mM of the substance was diluted to a 10 fold concentrated working solution (100 μM) in endothelial cell basal medium. The basal medium fraction was supplemented with 25 ng VEGF/100 μl for the stimulation of HUVEC sprouting.
The screening procedures were modified versions of those described by Korff and Augustin (J Cell Sci 112: 3249-58, 1999). By way of summary, spheroids were prepared by pipetting 400 human umbilical vein endothelial cells (HUVEC) into each well of nonadhesive 96-well plates. Prior to use the HUVEC were cultured according to the supplier's instructions (PromoCell, Heidelberg, Germany). The cells were allowed to aggregate overnight into spheroids (Korff and Augustin: J Cell Biol 143: 1341-52, 1998). After aggregation, 48 HUVEC spheriods were harvested. Each harvested spheroid was seeded in 900 μl of methocel-collagen solution and pipetted into an individual well of a 24-well plate to allow collagen gel polymerization.
as §1
The HUVEC spheriods were microscopically assayed for endothelial cell (EC) sprouting intensity. The degree of EC sprouting was classified into one of four groups by comparing the degree of sprouting to that observed in VEGF control cells. […] For exemplary results, see FIG. 1.

A375 = test: Cytoviability assay (resazurin), A375; type: cell-based; details: Homo sapiens, A-375, 24 hours after treatment, read-out: IC50 cell viability A375
Experimental: as §2

[3] = tested on: Endothelial cells, Fibroblast, Alexander cells; test: Viability of cells (Endothelial cells, Fibroblast, Alexander cells); type: cell-based
HUVEC [4] = test: Cytoviability assay (resazurin), HUVEC; type: cell-based; details: Homo sapiens, 24 hours after treatment, read-out: IC50 cell viability HUVEC
Experimental: as §2

For `C1CCC(C(CC2CCCCN2)C2CCCCC2)CC1` (stereo not drawn) [Perhexiline, Perhexiline maleate], the IC50 (HUVEC [1]) was 10 µM, the IC50 ([2]; Homo sapiens, NHDF) was 19 µM and the “fibroblast scattering (invasion) effect” value ([2]; NHDF spheroids in collagen gel, no supplements, 24 hours) was “no fibroblast invasion effect”. For the same molecule, the IC50 (HDMEC) was 11 µM, the IC50 (Fibroblast) was 5.2 µM and the “EC sprouting intensity compared with VEGF control” value (HUVEC sprouting) was “sprouting inhibition”. For the same molecule, the IC50 (A375) was 10 µM, the IC50 [3] was roughly 10 µM and the IC50 (HUVEC [4]) was 8.4 µM.
